# Data: paper PMC6915728 (Nature Communications, 2019)
# Where two headings read alike, the source gives them in different places.
# Legend:
# [1] = tested on: E. coli BW25113 overexpression strains (ASKA plasmids); experiment: Minimum inhibitory concentration (MIC), serial broth dilution, single-gene overexpression strains vs empty-vector control; format: cell-based, Escherichia coli; conditions: broth dilution, MS medium, 100 µM IPTG, 30 °C, 20-24 h, OD600, 3 replicates
# Experimental: Minimum inhibitory concentrations (MIC) were determined with a standard serial broth dilution technique with a minor modification. Specifically, instead of a two-fold dilution series, smaller AMP concentration steps were used (typically 1.2-fold) for two reasons. […] Second, gene overexpressions caused typically only small changes in the MICs of AMPs and therefore higher resolution was required. The protocol was as follows. From a stock solution of an AMP, 12-steps serial dilution was prepared in fresh MS medium in 96-well microtiter plates. Each AMP was represented in 11 different concentrations (3 wells per AMP concentration per strain). Three wells contained only medium to check the growth in the absence of AMP. After overnight growth in MS medium supplemented with chloramphenicol, bacterial strains were diluted 20-fold into fresh MS medium and grown until the cell density reached OD600 ~1. Cells were induced by 100 µM of IPTG and incubated for 1 h at 30 °C with continuous shaking at 300 rpm. Following incubation, approximately half-million cells were inoculated into the wells of the 96-well microtiter plate with a 96‐pin replicator. We used three independent replicates for each strain and the corresponding control. Two rows in the 96-well plate contained only MS medium in order to obtain the background OD value of the medium. Plates were incubated at 30 °C with continuous shaking at 300 rpm. After 20–24 h of incubation, OD600 values were measured in a microplate reader (Biotek Synergy 2).
# [2] = tested on: AMP-evolved E. coli lines; conditions: ref Spohn et al 2019, cited from earlier work
# From the text: Supplement 41467_2019_13618_MOESM13_ESM.xlsx, sheet "Figure 6 and S15" | column: A comprehensive dataset of antimicrobial susceptibility of AMP-adapted lines to antimicrobial peptides (AMPs).
# E. coli = conditions: previous laboratory evolution experiment; cited from earlier work
# From the text: The results presented in this study may have important implications for the development of AMP-based therapies. Previous works reported several instances of cross-resistance interactions between membrane-targeting peptides (Supplementary Data 1), however, the potential for cross-resistance across AMPs with different modes of action has remained poorly understood. Specifically, while cross-resistance between host and therapeutic AMPs is certainly a realistic danger, not all AMPs are equally prone to cross-resistance. Given the immense diversity of AMPs with major differences in physicochemical ...
# bacterial membrane = conditions: literature mining; ref superscript numbers in the cell, listed in Supplementary Data 7 sheet References; cited from earlier work
# From the text: Supplement 41467_2019_13618_MOESM10_ESM.xlsx, sheet "AMP details" | column: Pore formation
sequence,measurement,setting,value
"FLGKVFKLASKVFKAVFGKV [R8, synthetic AMP (from linguistic model); cluster C1]",Relative MIC,"[1]; overexpression strain mlaD, MIC of the overexpression strain / MIC of the control strain (wild-type carrying the empty plasmid)",1
same,Relative MIC,"[1]; overexpression strain mzrA, MIC of overexpression strain / MIC of empty-plasmid control",1.3
same,Relative MIC,"[1]; overexpression strain yhbJ, MIC of overexpression strain / MIC of empty-plasmid control",1
same,Relative change in MIC (MIC of the AMP-adpated line / MIC of the ancestral strain),[2]; AMP-adapted line BAC5_3,1
same,Relative change in MIC (MIC of the AMP-adpated line / MIC of the ancestral strain),[2]; AMP-adapted line BAC5_5,1
same,Relative change in MIC (MIC of the AMP-adpated line / MIC of the ancestral strain),[2]; AMP-adapted line BAC5_7,1.1
same,Relative change in MIC (MIC of the AMP-adpated line / MIC of the ancestral strain),[2]; AMP-adapted line BAC5_10,1.1
same,Relative change in MIC (MIC of the AMP-adpated line / MIC of the ancestral strain),[2]; AMP-adapted line CAP18_2,1.2
same,Relative change in MIC (MIC of the AMP-adpated line / MIC of the ancestral strain),[2]; AMP-adapted line CAP18_5,1.1
same,Relative change in MIC (MIC of the AMP-adpated line / MIC of the ancestral strain),[2]; AMP-adapted line CAP18_6,1
same,Relative change in MIC (MIC of the AMP-adpated line / MIC of the ancestral strain),[2]; AMP-adapted line CAP18_8,1.1
same,Relative change in MIC (MIC of the AMP-adpated line / MIC of the ancestral strain),[2]; AMP-adapted line CAP18_10,1.2
same,Relative change in MIC (MIC of the AMP-adpated line / MIC of the ancestral strain),[2]; AMP-adapted line HBD3_3,1
same,Relative change in MIC (MIC of the AMP-adpated line / MIC of the ancestral strain),[2]; AMP-adapted line HBD3_6,1.2
same,Relative change in MIC (MIC of the AMP-adpated line / MIC of the ancestral strain),[2]; AMP-adapted line HBD3_8,1
same,Relative change in MIC (MIC of the AMP-adpated line / MIC of the ancestral strain),[2]; AMP-adapted line HBD3_10,1
same,Relative change in MIC (MIC of the AMP-adpated line / MIC of the ancestral strain),[2]; AMP-adapted line LL37_1,1.2
same,Relative change in MIC (MIC of the AMP-adpated line / MIC of the ancestral strain),[2]; AMP-adapted line LL37_3,1.2
same,Relative change in MIC (MIC of the AMP-adpated line / MIC of the ancestral strain),[2]; AMP-adapted line LL37_6,1
same,Relative change in MIC (MIC of the AMP-adpated line / MIC of the ancestral strain),[2]; AMP-adapted line LL37_7,1.1
same,Relative change in MIC (MIC of the AMP-adpated line / MIC of the ancestral strain),[2]; AMP-adapted line LL37_10,1.2
same,Relative change in MIC (MIC of the AMP-adpated line / MIC of the ancestral strain),[2]; AMP-adapted line PEX_1,1.1
same,Relative change in MIC (MIC of the AMP-adpated line / MIC of the ancestral strain),[2]; AMP-adapted line PEX_4,1.2
same,Relative change in MIC (MIC of the AMP-adpated line / MIC of the ancestral strain),[2]; AMP-adapted line PEX_5,1.1
same,Relative change in MIC (MIC of the AMP-adpated line / MIC of the ancestral strain),[2]; AMP-adapted line PEX_6,1
same,Relative change in MIC (MIC of the AMP-adpated line / MIC of the ancestral strain),[2]; AMP-adapted line PEX_7,1.2
same,Relative change in MIC (MIC of the AMP-adpated line / MIC of the ancestral strain),[2]; AMP-adapted line PR39_1,1.1
same,Relative change in MIC (MIC of the AMP-adpated line / MIC of the ancestral strain),[2]; AMP-adapted line PR39_2,1
same,Relative change in MIC (MIC of the AMP-adpated line / MIC of the ancestral strain),[2]; AMP-adapted line PR39_5,1
same,Relative change in MIC (MIC of the AMP-adpated line / MIC of the ancestral strain),[2]; AMP-adapted line PR39_7,1
same,Relative change in MIC (MIC of the AMP-adpated line / MIC of the ancestral strain),[2]; AMP-adapted line PR39_10,1
same,Relative change in MIC (MIC of the AMP-adpated line / MIC of the ancestral strain),[2]; AMP-adapted line PROA_2,1
same,Relative change in MIC (MIC of the AMP-adpated line / MIC of the ancestral strain),[2]; AMP-adapted line PROA_3,1
same,Relative change in MIC (MIC of the AMP-adpated line / MIC of the ancestral strain),[2]; AMP-adapted line PROA_7,1
same,Relative change in MIC (MIC of the AMP-adpated line / MIC of the ancestral strain),[2]; AMP-adapted line PROA_8,1
same,Relative change in MIC (MIC of the AMP-adpated line / MIC of the ancestral strain),[2]; AMP-adapted line PROA_9,1
same,Relative change in MIC (MIC of the AMP-adpated line / MIC of the ancestral strain),[2]; AMP-adapted line PXB_2,1
same,Relative change in MIC (MIC of the AMP-adpated line / MIC of the ancestral strain),[2]; AMP-adapted line PXB_5,1.7
same,Relative change in MIC (MIC of the AMP-adpated line / MIC of the ancestral strain),[2]; AMP-adapted line PXB_6,1.9
same,Relative change in MIC (MIC of the AMP-adpated line / MIC of the ancestral strain),[2]; AMP-adapted line PXB_8,1.9
same,Relative change in MIC (MIC of the AMP-adpated line / MIC of the ancestral strain),[2]; AMP-adapted line PXB_10,1.2
same,Emergence of resistant lines in laboratory evolution,E. coli,did not result in any significant resistant lines
"SWLSKTAKKLENSAKKRISEGIAIAIQGGPR [CP1, Cecropin P1, antimicrobial peptide, source Ascaris suum; disrupts cell membrane; cluster C1]",Relative MIC,"[1]; overexpression strain nikB, MIC of overexpression strain / MIC of empty-plasmid control",0.8
same,Relative MIC,"[1]; overexpression strain ptsN, MIC of overexpression strain / MIC of empty-plasmid control",0.76
same,Relative MIC,"[1]; overexpression strain yiaJ, MIC of overexpression strain / MIC of empty-plasmid control",0.8
same,Relative change in MIC (MIC of the AMP-adpated line / MIC of the ancestral strain),[2]; AMP-adapted line BAC5_3,1.1
same,Relative change in MIC (MIC of the AMP-adpated line / MIC of the ancestral strain),[2]; AMP-adapted line BAC5_5,1.2
same,Relative change in MIC (MIC of the AMP-adpated line / MIC of the ancestral strain),[2]; AMP-adapted line BAC5_7,1
same,Relative change in MIC (MIC of the AMP-adpated line / MIC of the ancestral strain),[2]; AMP-adapted line BAC5_10,1
same,Relative change in MIC (MIC of the AMP-adpated line / MIC of the ancestral strain),[2]; AMP-adapted line CAP18_2,1
same,Relative change in MIC (MIC of the AMP-adpated line / MIC of the ancestral strain),[2]; AMP-adapted line CAP18_5,1.2
same,Relative change in MIC (MIC of the AMP-adpated line / MIC of the ancestral strain),[2]; AMP-adapted line CAP18_6,1
same,Relative change in MIC (MIC of the AMP-adpated line / MIC of the ancestral strain),[2]; AMP-adapted line CAP18_8,1
same,Relative change in MIC (MIC of the AMP-adpated line / MIC of the ancestral strain),[2]; AMP-adapted line CAP18_10,1
same,Relative change in MIC (MIC of the AMP-adpated line / MIC of the ancestral strain),[2]; AMP-adapted line HBD3_3,1.1
same,Relative change in MIC (MIC of the AMP-adpated line / MIC of the ancestral strain),[2]; AMP-adapted line HBD3_6,1.1
same,Relative change in MIC (MIC of the AMP-adpated line / MIC of the ancestral strain),[2]; AMP-adapted line HBD3_8,1.2
same,Relative change in MIC (MIC of the AMP-adpated line / MIC of the ancestral strain),[2]; AMP-adapted line HBD3_10,1.2
same,Relative change in MIC (MIC of the AMP-adpated line / MIC of the ancestral strain),[2]; AMP-adapted line LL37_1,0.8
same,Relative change in MIC (MIC of the AMP-adpated line / MIC of the ancestral strain),[2]; AMP-adapted line LL37_3,1
same,Relative change in MIC (MIC of the AMP-adpated line / MIC of the ancestral strain),[2]; AMP-adapted line LL37_6,0.9
same,Relative change in MIC (MIC of the AMP-adpated line / MIC of the ancestral strain),[2]; AMP-adapted line LL37_7,1.1
same,Relative change in MIC (MIC of the AMP-adpated line / MIC of the ancestral strain),[2]; AMP-adapted line LL37_10,0.9
same,Relative change in MIC (MIC of the AMP-adpated line / MIC of the ancestral strain),[2]; AMP-adapted line PEX_1,1.1
same,Relative change in MIC (MIC of the AMP-adpated line / MIC of the ancestral strain),[2]; AMP-adapted line PEX_4,1.2
same,Relative change in MIC (MIC of the AMP-adpated line / MIC of the ancestral strain),[2]; AMP-adapted line PEX_5,1.1
same,Relative change in MIC (MIC of the AMP-adpated line / MIC of the ancestral strain),[2]; AMP-adapted line PEX_6,1
same,Relative change in MIC (MIC of the AMP-adpated line / MIC of the ancestral strain),[2]; AMP-adapted line PEX_7,1.3
same,Relative change in MIC (MIC of the AMP-adpated line / MIC of the ancestral strain),[2]; AMP-adapted line PR39_1,1.1
same,Relative change in MIC (MIC of the AMP-adpated line / MIC of the ancestral strain),[2]; AMP-adapted line PR39_2,1.1
same,Relative change in MIC (MIC of the AMP-adpated line / MIC of the ancestral strain),[2]; AMP-adapted line PR39_5,1
same,Relative change in MIC (MIC of the AMP-adpated line / MIC of the ancestral strain),[2]; AMP-adapted line PR39_7,1
same,Relative change in MIC (MIC of the AMP-adpated line / MIC of the ancestral strain),[2]; AMP-adapted line PR39_10,0.8
same,Relative change in MIC (MIC of the AMP-adpated line / MIC of the ancestral strain),[2]; AMP-adapted line PROA_2,1.1
same,Relative change in MIC (MIC of the AMP-adpated line / MIC of the ancestral strain),[2]; AMP-adapted line PROA_3,0.9
same,Relative change in MIC (MIC of the AMP-adpated line / MIC of the ancestral strain),[2]; AMP-adapted line PROA_7,0.8
same,Relative change in MIC (MIC of the AMP-adpated line / MIC of the ancestral strain),[2]; AMP-adapted line PROA_8,0.9
same,Relative change in MIC (MIC of the AMP-adpated line / MIC of the ancestral strain),[2]; AMP-adapted line PROA_9,1.1
same,Relative change in MIC (MIC of the AMP-adpated line / MIC of the ancestral strain),[2]; AMP-adapted line PXB_2,1.3
same,Relative change in MIC (MIC of the AMP-adpated line / MIC of the ancestral strain),[2]; AMP-adapted line PXB_5,1
same,Relative change in MIC (MIC of the AMP-adpated line / MIC of the ancestral strain),[2]; AMP-adapted line PXB_6,1.2
same,Relative change in MIC (MIC of the AMP-adpated line / MIC of the ancestral strain),[2]; AMP-adapted line PXB_8,1.1
same,Relative change in MIC (MIC of the AMP-adpated line / MIC of the ancestral strain),[2]; AMP-adapted line PXB_10,1.2
same,Pore formation (whether AMP makes pores in the bacterial membrane),bacterial membrane,Yes6-8
same,Emergence of resistant lines in laboratory evolution,E. coli,did not result in any significant resistant lines
